Laboratory results taken from patent publication US10039753B2, “Imidazo[4,5-c]quinoline and imidazo[4,5-c][1,5]naphthyridine derivatives as LRRK2 inhibitors” (Pfizer Inc., priority 2015, dated 2018).

What was measured:
mutant G2019S LRRK2 [1] = biological target: T1, mutant G2019S LRRK2 (Homo sapiens, UniProt Q5S007, G2019S); test: LRRK2 Assay, Format 1 (Lantha Screen), G2019S mutant
Method: LRRK2 kinase activity was measured using Lantha Screen technology from Invitrogen. GST-tagged truncated LRRK2 from Invitrogen (Cat # PV4874) was incubated with a fluorescein-labeled peptide substrate based upon ezrin/radixin/moesin (ERM), also known as LRRKtide (Invitrogen cat # PR8976A), in the presence of a dose response of compound. Upon completion, the assay was stopped and detected with a terbium labeled anti-phospho-ERM antibody (Invitrogen, cat # PR8975A). […] Aliquots (3.5 μL) of the 100% DMSO dose response were mixed with 46.5 μL water then 1 μL of this mixture was added to the 3 μL substrate mix in the 384-well plate. The kinase reaction was started with 3 μL of a working solution of LRRK2 enzyme at a concentration of 4 μg/mL. […] The reaction was allowed to progress at room temperature for two hours and then stopped with the addition of 7 μL of detection buffer (20 mM Tris pH 7.6, 0.01% NP-40, 0.02% NaN3, 6 mM EDTA with 2 nM terbium labeled anti-phospho-ERM).
All final concentrations of substrate ATP and enzyme were the same.

[2] = biological target: T2, GST-tagged truncated LRRK2 (Homo sapiens, UniProt Q5S007); test: LRRK2 Assay, Format 2 (Lantha Screen), WT; format: biochemical
T2 construct: GST-tagged truncated LRRK2 from Invitrogen (Cat # PV4874); GST; purchased Invitrogen PV4874
T2 sequence (Q5S007 970-2527 limits assumed): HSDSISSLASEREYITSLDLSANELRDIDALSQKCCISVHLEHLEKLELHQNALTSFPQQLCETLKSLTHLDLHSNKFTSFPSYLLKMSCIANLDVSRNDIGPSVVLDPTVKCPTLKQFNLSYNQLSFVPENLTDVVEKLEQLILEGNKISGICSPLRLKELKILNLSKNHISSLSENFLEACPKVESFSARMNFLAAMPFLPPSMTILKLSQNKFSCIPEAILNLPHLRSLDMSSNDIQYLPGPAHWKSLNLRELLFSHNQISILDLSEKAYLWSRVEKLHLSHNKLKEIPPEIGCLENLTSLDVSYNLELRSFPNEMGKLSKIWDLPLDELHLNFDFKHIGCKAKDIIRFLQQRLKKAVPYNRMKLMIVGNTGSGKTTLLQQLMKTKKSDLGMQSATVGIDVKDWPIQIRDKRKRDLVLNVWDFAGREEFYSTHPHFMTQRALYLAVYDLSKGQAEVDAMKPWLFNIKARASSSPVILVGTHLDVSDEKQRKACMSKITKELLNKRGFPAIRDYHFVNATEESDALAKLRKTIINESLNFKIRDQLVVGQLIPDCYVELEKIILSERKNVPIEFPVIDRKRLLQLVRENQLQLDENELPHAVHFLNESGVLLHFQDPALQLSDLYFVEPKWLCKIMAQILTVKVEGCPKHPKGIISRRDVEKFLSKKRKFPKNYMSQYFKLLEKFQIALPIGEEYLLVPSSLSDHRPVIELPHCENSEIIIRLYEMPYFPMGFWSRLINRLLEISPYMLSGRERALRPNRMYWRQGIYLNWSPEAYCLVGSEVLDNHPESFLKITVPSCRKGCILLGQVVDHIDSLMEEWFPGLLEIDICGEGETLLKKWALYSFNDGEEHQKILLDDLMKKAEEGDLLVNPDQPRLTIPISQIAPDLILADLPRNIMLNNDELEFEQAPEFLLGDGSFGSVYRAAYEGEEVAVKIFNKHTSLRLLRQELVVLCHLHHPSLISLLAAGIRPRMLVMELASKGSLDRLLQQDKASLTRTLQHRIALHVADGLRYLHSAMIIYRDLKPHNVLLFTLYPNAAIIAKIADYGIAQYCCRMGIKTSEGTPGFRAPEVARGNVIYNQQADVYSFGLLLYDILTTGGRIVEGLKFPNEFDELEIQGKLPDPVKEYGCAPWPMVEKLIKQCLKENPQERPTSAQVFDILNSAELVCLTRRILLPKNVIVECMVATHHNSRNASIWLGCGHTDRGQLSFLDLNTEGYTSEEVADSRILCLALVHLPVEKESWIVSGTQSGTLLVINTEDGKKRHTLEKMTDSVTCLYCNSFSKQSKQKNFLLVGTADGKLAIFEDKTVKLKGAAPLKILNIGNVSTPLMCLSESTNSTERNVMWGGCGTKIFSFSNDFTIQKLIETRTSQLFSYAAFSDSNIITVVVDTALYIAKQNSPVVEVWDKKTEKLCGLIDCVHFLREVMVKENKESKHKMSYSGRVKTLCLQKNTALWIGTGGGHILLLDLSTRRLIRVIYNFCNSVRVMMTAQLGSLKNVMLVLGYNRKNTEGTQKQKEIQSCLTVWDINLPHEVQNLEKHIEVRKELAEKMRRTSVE

mutant G2019S LRRK2 [3] = biological target: T1, mutant G2019S LRRK2; test: LRRK2 Assay, Format 2 (Lantha Screen), G2019S mutant; format: biochemical; set-up: purchased Invitrogen PV4881
[4] = biological target: T2, GST-tagged truncated LRRK2; test: LRRK2 Assay, Format 1 (Lantha Screen), WT; format: biochemical
Method in brief: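 Kinase activity measured by TR-FRET: GST-tagged truncated LRRK2 (4 μg/mL working solution) reacted with fluorescein-labeled LRRKtide (ERM-based peptide) across a compound dose response for 2 h at room temperature. Reaction stopped with EDTA-containing detection buffer (20 mM Tris pH 7.6) holding 2 nM terbium anti-phospho-ERM antibody.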

[5] = 100 nM LRRKtide, 50 μM ATP, 1.7 μg/mL LRRK2 enzyme, two hours at room temperature
[6] = geometric mean of 2-4 determinations unless otherwise indicated (a: >=5; b: single determination)
[7] = geometric mean of 2-4 determinations unless otherwise indicated (a: >=5; b: single determination), read-out: LRRK2, Format 2 G2019S IC50
[8] = geometric mean of 2-4 determinations unless otherwise indicated
[9] = Format 1, wild-type LRRK2, geometric mean of 2-4 determinations unless footnoted (a: ≥5 determinations; b: single determination; c: determined on trifluoroacetate salt)

T1 sequence (Q5S007 970-2527 G2019S limits assumed): as the sequence (Q5S007 970-2527 limits assumed) above, with G1050S counted along it

Row | IC50 (mutant G2019S LRRK2 [1]) | IC50 [4, 5] | IC50 [2, 6] | IC50 (mutant G2019S LRRK2 [3]; [7]) | IC50 [4, 8] | Structure (SMILES) | also measured
1 | 105 nM | 156 nM |  |  |  | Cc1nc(Cc2nc3cnc4ccc(Cl)cc4c3n2C2C[C@@H](C)[C@@H](F)C2)no1 (mixture of isomers) [diastereomer of Example 136, 8-chloro-1-[rel-(3S,4R)-3-fluoro-4-methylcyclopentyl]-2-[(5-methyl-1,2,4-oxadiazol-3-yl)methyl]-1H-imidazo[4,5-c]quinoline, DIAST-2] | IC50 ([2]; 100 nM LRRKtide, 1000 mM ATP (so in the source), 30 minutes at room temperature): 63.2 nM; IC50 (mutant G2019S LRRK2 [3]; 100 nM LRRKtide, 1000 mM ATP (so in the source), 30 minutes at room temperature, read-out: LRRK2, Format 2 G2019S mutant IC50): 69.2 nM
2 | 24.7 nM |  | 12 nM | 13 nM | 30.1 nM | Cc1nc(Cc2nc3cnc4ccc(Cl)cc4c3n2C2C[C@@H](C)[C@@H](F)C2)no1 (single isomer, unassigned) [Example 136] | 
3 | 3.78 nM |  | 7.68 nM | 7.78 nM | 3.48 nM | Cc1cc(Cc2nc3cnc4ccc(Cl)cc4c3n2[C@@H]2CCO[C@H](CC#N)C2)no1 (single isomer, unassigned; ent-1) [Example 134, [cis-4-{8-chloro-2-[(5-methyl-1,2-oxazol-3-yl)methyl]-1H-imidazo[4,5-c]quinolin-1-yl}tetrahydro-2H-pyran-2-yl]acetonitrile, ENT-1] | 
4 | 3.65 nM |  | 16 nM | 15.5 nM | 3.78 nM | Cc1nc(Cc2nc3cnc4ccc(Cl)cc4c3n2[C@@H]2CCO[C@H](CC#N)C2)no1 (single isomer, unassigned; ent-1) [Example 135, [cis-4-{8-chloro-2-[(5-methyl-1,2,4-oxadiazol-3-yl)methyl]-1H-imidazo[4,5-c]quinolin-1-yl}tetrahydro-2H-pyran-2-yl]acetonitrile, ENT-1] | 
5 | 6.4 nM |  |  |  |  | COc1ccc2ncc3nc(Cc4cn5ncsc5n4)n([C@@H]4CCO[C@H](C)C4)c3c2c1 [Example 90, 2-(imidazo[2,1-b][1,3,4]thiadiazol-6-ylmethyl)-8-methoxy-1-[(2R,4R)-2-methyltetrahydro-2H-pyran-4-yl]-1H-imidazo[4,5-c]quinoline] | IC50 [4, 9]: 14.8 nM
6 | 11 nM |  |  |  |  | Cc1cnc(Cc2nc3cnc4ccc(Cl)cc4c3n2[C@@H]2CCO[C@H](C)C2)o1 [Example 92, 8-chloro-2-[(5-methyl-1,3-oxazol-2-yl)methyl]-1-[(2R,4R)-2-methyltetrahydro-2H-pyran-4-yl]-1H-imidazo[4,5-c]quinoline] | IC50 [4, 9]: 16.2 nM
7 | 4.8 nM |  | 6.98 nM | 7.33 nM | 4.78 nM | C[C@@H]1C[C@H](n2c(Cc3cc(C4CC4)on3)nc3cnc4ccc(C#N)cc4c32)CCO1 [Example 145, 2-[(5-cyclopropyl-1,2-oxazol-3-yl)methyl]-1-[(2R,4R)-2-methyltetrahydro-2H-pyran-4-yl]-1H-imidazo[4,5-c]quinoline-8-carbonitrile] | 
8 | 15.9 nM |  | 5.2 nM | 5.35 nM | 17.1 nM | CC(C)c1cc(Cc2nc3cnc4ccc(Br)cc4c3n2[C@@H]2CCO[C@H](C)C2)no1 [Example 171, 8-bromo-1-[(2R,4R)-2-methyltetrahydro-2H-pyran-4-yl]-2-{[5-(propan-2-yl)-1,2-oxazol-3-yl]methyl}-1H-imidazo[4,5-c]quinoline] | 
9 | 9.17 nM |  | 6 nM | 6.34 nM | 14.4 nM | C[C@@H]1C[C@H](n2c(Cc3cc(C4CC4)on3)nc3cnc4ccc(Br)cc4c32)CCO1 [Example 172, 8-bromo-2-[(5-cyclopropyl-1,2-oxazol-3-yl)methyl]-1-[(2R,4R)-2-methyltetrahydro-2H-pyran-4-yl]-1H-imidazo[4,5-c]quinoline] | 
10 | 3.62 nM |  | 6.7 nM | 6.72 nM | 5.14 nM | Cc1cn(Cc2nc3cnc4ccc(Br)cc4c3n2[C@@H]2CCO[C@H](C)C2)nn1 [Example 173, 8-bromo-1-[(2R,4R)-2-methyltetrahydro-2H-pyran-4-yl]-2-[(4-methyl-1H-1,2,3-triazol-1-yl)methyl]-1H-imidazo[4,5-c]quinoline] | 
11 | 258 nM | 534 nM |  |  |  | C[C@H]1C[C@@H](n2c(Cc3ccon3)nc3cnc4ccc(C#N)cc4c32)CCO1 [enantiomer of Example 22, 1-[(2 S,4S)-2-methyltetrahydro-2H-pyran-4-yl]-2-(1,2-oxazol-3-ylmethyl)-1H-imidazo[4,5-c]quinoline-8-carbonitrile] | 
12 | 134 nM | 267 nM |  |  |  | C[C@@H]1C[C@@H](n2c(Cc3ccon3)nc3cnc4ccc(C#N)cc4c32)CCO1 [enantiomer of Example 24, 1-[(2R,4S)-2-methyltetrahydro-2H-pyran-4-yl]-2-(1,2-oxazol-3-ylmethyl)-1H-imidazo[4,5-c]quinoline-8-carbonitrile] | 
13 | 236 nM | 332 nM |  |  |  | C[C@H]1C[C@@H](n2c(Cc3ccon3)nc3cnc4ccc(F)cc4c32)CCO1 [enantiomer of Example 54, 8-fluoro-1-[(2S,4S)-2-methyltetrahydro-2H-pyran-4-yl]-2-(1,2-oxazol-3-ylmethyl)-1H-imidazo[4,5-c]quinoline] | 
14 | 196 nM | 382 nM |  |  |  | C[C@H]1C[C@@H](n2c(Cc3cscn3)nc3cnc4ccc(C#N)cc4c32)CCO1 [enantiomer of Example 57, 1-[(2S,4S)-2-methyltetrahydro-2H-pyran-4-yl]-2-(1,3-thiazol-4-ylmethyl)-1H-imidazo[4,5-c]quinoline-8-carbonitrile] | 
15 | 508 nM | 1710 nM |  |  |  | COc1ccc2ncc3nc(Cc4ccon4)n([C@H]4CCO[C@@H](C)C4)c3c2c1 [enantiomer of Example 62, 8-methoxy-1-[(2S,4S)-2-methyltetrahydro-2H-pyran-4-yl]-2-(1,2-oxazol-3-ylmethyl)-1H-imidazo[4,5-c]quinoline] | 
16 | 241 nM | 687 nM |  |  |  | C[C@H]1C[C@@H](n2c(Cn3cncn3)nc3cnc4ccc(Cl)cc4c32)CCO1 [enantiomer of Example 65, 8-chloro-1-[(2S,4S)-2-methyltetrahydro-2H-pyran-4-yl]-2-(1H-1,2,4-triazol-1-ylmethyl)-1H-imidazo[4,5-c]quinoline] | 
17 | 403 nM | 699 nM |  |  |  | CC[C@H]1C[C@@H](n2c(Cc3ccon3)nc3cnc4ccc(C#N)cc4c32)CCO1 [enantiomer of Example 67, 1-[(2S,4S)-2-ethyltetrahydro-2H-pyran-4-yl]-2-(1,2-oxazol-3-ylmethyl)-1H-imidazo[4,5-c]quinoline-8-carbonitrile] | 
18 | 632 nM | 853 nM |  |  |  | C[C@H]1C[C@@H](n2c(Cc3ccon3)nc3cnc4cccnc4c32)CCO1 [enantiomer of Example 68, 1-[(2 S,4S)-2-methyltetrahydro-2H-pyran-4-yl]-2-(1,2-oxazol-3-ylmethyl)-1H-imidazo[4,5-c][1,5]naphthyridine] | 
19 | 929 nM | 2850 nM |  |  |  | COc1ccc2ncc3nc(Cc4noc(C)n4)n([C@H]4CCO[C@@H](C)C4)c3c2c1 [enantiomer of Example 87, 8-methoxy-2-[(5-methyl-1,2,4-oxadiazol-3-yl)methyl]-1-[(2S,4S)-2-methyltetrahydro-2H-pyran-4-yl]-1H-imidazo[4,5-c]quinoline] | 
20 | 372 nM | 1050 nM |  |  |  | COc1ccc2ncc3nc(Cn4cc(C)nn4)n([C@H]4CCO[C@@H](C)C4)c3c2c1 [enantiomer of Example 88, 8-methoxy-1-[(2S,4S)-2-methyltetrahydro-2H-pyran-4-yl]-2-[(4-methyl-1H-1,2,3-triazol-1-yl)methyl]-1H-imidazo[4,5-c]quinoline] | 
21 | 245 nM | 623 nM |  |  |  | COc1ccc2ncc3nc(Cc4cn5ncsc5n4)n([C@H]4CCO[C@@H](C)C4)c3c2c1 [enantiomer of Example 90, 2-(imidazo[2,1-b][1,3,4]thiadiazol-6-ylmethyl)-8-methoxy-1-[(2S,4S)-2-methyltetrahydro-2H-pyran-4-yl]-1H-imidazo[4,5-c]quinoline] | 
